Measurements: patent US20130183239A1, “ISOTOPIC CARBON CHOLINE ANALOGS” (IMPERIAL COLLEGE, priority 2010, published 2013)
Entries after “also recorded” stand apart in the source; their conditions may differ.

Experiments:
HCT116 tumors = assay: PD0325901 treatment of HCT116 tumor-bearing mice with [18F]D4-FCH-PET; assay type: in vivo
Experimental: (§1) Size-matched HCT116 tumor bearing mice were randomized to receive daily treatment by oral gavage of vehicle (0.5% hydroxypropyl methylcellulose+0.2% Tween 80) or 25 mg/kg (0.005 mL/g mouse) of the mitogenic extracellular kinase inhibitor, PD0325901, prepared in vehicle. [^18F]D4-FCH-PET scanning was done after 10 daily treatments with the last dose administered 1 h before scanning. […] The results are illustrated in FIGS. 18 and 19.
These studies were performed in a reproducible tumor model system in which treatment outcomes had been previously characterized, i.e., the human colon carcinoma xenograft HCT116 treated with PD0325901 daily for 10 days (Leyton, J., et al., “Noninvasive imaging of cell proliferation following mitogenic extracellular kinase inhibition by PD0325901”, Mol Cancer Ther 2008; 7(9):3112-21). […] All imaging variables decreased after 10 days of drug treatment (P=0.05, FIG. 18). […] To understand the biomarker changes, the intrinsic cellular effect of PD0325901 on D4-FCH-phosphocholine formation was examined by treating exponentially growing HCT116 cells in culture with PD0325901 for 24 h and measuring the 60-min uptake of [^18F]D4-FCH in vitro.

HCT116 cells = assay: [18F]D4-FCH-phosphocholine formation in HCT116 cells treated with PD0325901; assay type: cell-based, human; settings: PD0325901 1 μM for 24 h, 60-min uptake
Experimental: HCT116 cells were grown in T150 flasks in triplicate until they were 70% confluent and then treated with vehicle (1% DMSO in growth medium) or 1 μmol/L PD0325901 in vehicle for 24 h. Cells were pulsed for 1 h with 1.1 MBq of either […]D4—FCH or [^18F]FCH. The cells were washed three times in ice-cold phosphate buffered saline (PBS), scraped into 5 mL PBS, and centrifuged at 500×g for 3 min and then resuspended in 2 mL ice-cold methanol for HPLC analysis as described above for tissue samples. […] Briefly, HCT116 cells were grown in 100 mm dishes in triplicate and incubated with 5.0 MBq [^18F]FCH for 60 min at 37° C. to form the putative [^18F]FCH-phosphate. The cells were washed with 5 mL ice-cold PBS twice and then scraped and centrifuged at 750×g (4° C., 3 min) in 5 mL PBS. Cells were homogenized in 1 mL of 5 mmol/L Tris-HCl (pH 7.4) containing 50% (v/v) glycerol, 0.5 mmol/L MgCl2, and 0.5 mmol/L ZnCl2 and incubated with 10 units bacterial (type III) alkaline phosphatase (Sigma) at 37° C. in a shaking water bath for 30 min to dephosphorylate the [^18F]FCH-phosphate. The reaction was terminated by adding ice-cold methanol. Samples were processed as per plasma above and analyzed by radio-HPLC. Control experiments were done without alkaline phosphatase. […]

choline kinase A (CHKA) = assay: Western blot of choline kinase A expression in HCT116 tumors after PD0325901; assay type: in vivo, human; settings: HCT116 tumors at day 10, western blot
Experimental: HCT116 tumors from mice that were injected with PD0325901 (25 mg/kg daily for 10 days, orally) or vehicle were analyzed for CHKA expression by western blotting. β-actin was used as the loading control. (b) Summary densitometer measurements for CHKA expression expressed as a ratio to β-actin. The results are the mean ratios±SE; n=3, * P=0.05.
as §1
To understand further the mechanisms regulating [^18F]D4-FCH uptake with drug treatment, changes in CHKA expression in PD0325901 and vehicle-treated tumors excised after PET scanning were assessed.

CHKA = CHKA expression in exponentially growing cells treated with PD0325901; assay type: cell-based
[1] = Potassium permanganate oxidation study; assay type: physicochemical; settings: 1 hour post-treatment with potassium permanganate, room temperature, radio-HPLC
Excerpt: Reagents and Conditions: i) KMnO4, Na2CO3, H2O, rt.

[2] = mouse, in vivo
Experimental: Metabolite analysis of tissues including liver, kidney and tumor by HPLC was also accomplished. […] Choline and its metabolites lack any UV chromophore to permit presentation of chromatograms of the cold unlabelled compound simultaneously with the radioactivity chromatograms.
Liver, kidney, and tumor samples were obtained at 30 min. All samples were snap-frozen in liquid nitrogen. For analysis, samples were thawed and kept at 4° C. immediately before use. To ˜0.2 mL plasma was added ice-cold methanol (1.5 mL). The mixture was then centrifuged (3 min, 15,493×g, 4jC). The supernatant was evaporated to dryness using a rotary evaporator (Heidoloph Instruments) at a bath temperature of 40° C. The residue was suspended in mobile phase (1.1 mL), clarified (0.2 Am filter), and analyzed by HPLC. Liver, kidney, and tumor samples were homogenized in ice-cold methanol (1.5 mL) using an IKA Ultra-Turrax T-25 homogenizer and subsequently treated as per plasma samples (above). All samples were analyzed by radio-HPLC on an Agilent 1100 series HPLC system (Agilent Technologies) equipped with a γ-RAM Model 3 γ-detector (IN/US Systems) and Laura 3 software (Lablogic). The stationary phase comprised a Waters μBondapak C18 reverse-phase column (300×7.8 mm) (Waters, Milford, Mass., USA). Samples were analyzed using a mobile phase comprising solvent A (acetonitrile/water/ethanol/acetic acid/1.0 mol/L ammonium acetate/0.1 mol/L sodium phosphate; 800/127/68/2/3/10) and solvent B (acetonitrile/water/ethanol/acetic acid/1.0 mol/L ammonium acetate/0.1 mol/L sodiumphosphate; 400/400/68/44/88/10) with a gradient of 0% B for 6 min, then 0→100% B in 10 min, 100% B for 0.5 min, 100→0% B in 1.5 min then 0% B for 2 min, delivered at a flow rate of 3 mL/min.

[3] = mouse, in vivo, 60 min
Experimental: (§2) Dynamic [^18F]FCH and [^18F]D4-FCH imaging scans were carried out on a dedicated small animal PET scanner, quad-HIDAC (Oxford Positron Systems). The features of this instrument have been described previously (Barthel, H., et al., Cancer Res 2003; 63(13):3791-8). For scanning the tail veins, vehicle- or drug-treated mice were cannulated after induction of anesthesia (isofluorane/O2/N2O). The animals were placed within a thermostatically controlled jig (calibrated to provide a rectal temperature of ˜37° C.) and positioned prone in the scanner. [^18F]FCH or [^18F]D4-FCH (2.96-3.7 MBq) was injected via the tail vein cannula and scanning commenced. Dynamic scans were acquired in list mode format over a 60 min period as reported previously (Leyton, J., et al., Cancer Research 2006; 66(15):7621-9). The acquired data were sorted into 0.5 mm sinogram bins and 19 time frames (0.5×0.5×0.5 mm voxels; 4×15, 4×60, and 11×300 s) for image reconstruction, which was done by filtered back-projection using a two-dimensional Hamming filter (cutoff 0.6). The image data sets were visualized using the Analyze software (version 6.0; Biomedical Imaging Resource, Mayo Clinic). Cumulative images of 30 to 60 min dynamic data were used for visualization of radiotracer uptake and to draw regions of interest. Regions of interest were defined manually on five adjacent tumor regions (each 0.5 mm thickness). Dynamic data from these slices were averaged for each tissue (liver, kidney, muscle, urine, and tumor) and at each of the 19 time points to obtain time versus radioactivity curves. Corresponding whole body time versus radioactivity curves representing injected radioactivity were obtained by adding together radioactivity in all 200×160×160 reconstructed voxels. Tumor radioactivity was normalized to whole-body radioactivity and expressed as percent injected dose per voxel (% ID/vox). The normalized uptake of radiotracer at 60 min (% ID/vox60) was used for subsequent comparisons. The average of the normalized maximum voxel intensity across five slices of tumor % IDvox60max was also use for comparison to account for tumor heterogeneity and existence of necrotic regions in tumor. The area under the curve was calculated as the integral of % ID/vox from 0 to 60 min.

[4] = test system: human melanoma SKMEL-28 xenografts; settings: mouse, in vivo, 60 min
Experimental: as §2

choline oxidase = settings: 60 min, 1.76 MBq/mL, pH 7
[5] = C3H-Hej, mouse, in vivo, iv, 15 min

parent compound still present [1]	unknown metabolite (possibly the aldehyde intermediate) in liver [2]	kidney radioactivity as phosphocholine ([2]; 30 min)	kidney radioactivity in the form of betaine ([2]; 30 min)	unknown metabolite in kidney ([2]; 30 min)	form of radioactivity in tumors ([2]; iv, 30 min)	Bladder (urine) % ID/vox60 [3]	Kidney % ID/vox60 [3]	Liver radioactivity % ID/vox60 [3]	Tumor % ID/vox60 [4]	parent radiotracer present (choline oxidase)	conversion to betaine metabolite in plasma [5]	Structure (SMILES)	tumor [18F]D4-FCH uptake / retention (HCT116 tumors; HCT116 tumors, 10 days of 25 mg/kg daily vs vehicle, 25 mg/kg)	reduction in tumor size (HCT116 tumors; day 10 compared to the pretreatment group, 25 mg/kg daily, oral)	[18F]D4-FCH-phosphocholine formation (HCT116 cells)	CHKA protein expression in vivo (choline kinase A (CHKA))	CHKA expression in vitro (CHKA)
–	–	–	–	–	–	–	–	–	–	–	–	O=C(NOC[C@H](O)CO)c1ccc(F)c(F)c1Nc1ccc(I)cc1F [PD0325901]	significant reduction in tumor [^18F]D4-FCH uptake; also recorded: marked reduction in radiotracer retention	12.2%	significantly inhibited	significant reduction	reduction of CHKA expression
less than 40%	not found	31.8±9.8%	53.5±5.3%	3.3±0.6%	significant levels of [^18F]FCH-betaine	6.70±0.71 % ID/vox	15.97±4.65 % ID/vox	18.75±4.28 % ID/vox	5.50±0.49 % ID/vox	11±8%	~80%	C[N+](C)(C[18F])CCO [[^18F]FCH, [^18F]Fluoromethylcholine, reference compound]	–	–	–	–	–
